The source of these data is patent US5217961A, “Condensed quinoline system N-glycosides” (Mect Corporation, priority 1988, dated 1993).

For assay [1] the following is noted: J. Med. Chem. vol.17, 922 (1974); cited from earlier work.
In the next assay the test system is P-388. In words: Effect on prolongation of life span in cancer implanted mouse (P-388). The following applies: day 1 and day 5, P-388 i.p.; for Ratio of Life Prolongation (%) (T/C %): effective when T/C >= 120%. Type of assay: in vivo, CDF mouse. As to the method:
Animal used: CDF mouse (6 mice/group)
Number of implanted cells: 10^6 cells/mouse
Day of administration: Day 1 and Day 5
Dosage: LD50 or 400 mg/kg/day at the maximum

The test system of the next assay is KB cells. In words: Function for inhibiting multiplication of KB cell (in vitro test). Type of assay: cell-based, human. The following applies: compound added day 1, cells counted day 4, effective when ED50 < 4 μg/ml, 4320 min. As to the method:
KB cells, carcinomatous cell tumors, were transferred to in vitro floatation incubator systems, and added respectively with compounds of Examples 1 to 33. The results of cultivation added with these compounds were compared with the results of the control which was not added with any compound.
Cell used: KB Cell (Originating from human mouth epidermal cancer)
Culture medium: Eagles minimal essential medium (MEM) supplemented with 10% calf serum
Cultivation: 37° C. carbon dioxide gas incubator (5% CO2)
Day 0: KB cells were diluted in the culture medium to adjust the KB cell density to 2×10^4 /ml. Three ml of the cell suspension was inoculated in each of 60 mm plastic dishes. Two dishes per standard dosage were used.
Day 1: Test compound was added to the medium so that the final concentrations were set to 100, 30, 10, 3 and 1 μg/ml.
Day 4: Cells were scraped off from the dish using trypsin, and the cell number was countered using a Corter counter.
In generally accordance with the stipulations set forth by the National Cancer Institute (NCI) U.S.A., the concentration of compound necessary for exerting 50% growth inhibition (ED50) compared to the contral was determined.

For the compound `COc1cc(NS(C)(=O)=O)ccc1Nc1c2ccccc2nc2ccccc12` [Amsacrine, N-[4-(9-acridylamino)-3-methoxyphenyl)methanesulfonamide], in assay [1], the carcinostatic function entry is listed as “highest carcinostatic function”.
Turning to `COc1cc(NS(C)(=O)=O)ccc1Nc1c2ccccc2nc2c1[nH]c1ccc(NC3OC(CO)C(O)C(O)C3O)cc12` (stereo not drawn) [Compound 24, N-{4-[(7-(glycosyl-1-amino)-10H-indolo[3,2-b]quinoline-11-yl)amino]-3-methoxyphenyl} methanesulfonamide], the “cure (mice cured / mice in group)” value in the assay on P-388 (12.5 mg/kg, 6 mice/group) was 2/6. The “Ratio of Life Prolongation (%) (T/C %)” value in the assay on P-388 (12.5 mg/kg) is 213%; in the assay on P-388 (25 mg/kg) it was 145%; with P-388 (50 mg/kg), 90%. Further, the “Conc. (ED50), concentration necessary for exerting 50% growth inhibition of KB cells” value with KB cells is below 0.3 µg/mL.
